Reference: patent US5817670A, “Naphthyridine derivatives and pharmaceutical compositions thereof” (Yamanouchi Pharmaceutical Co., Ltd., priority 1994, dated 1998)
pIC50: −log10 of the molar value. Counter-ions that a name gives are not always drawn.

The compounds below were run against T1, type II phosphodiesterase (Rattus norvegicus, UniProt Q01062) (assay: Phosphodiesterase inhibition activity (in vitro), Type II). Conditions: Type II phosphodiesterase column.
T1 construct: purified from rat heart muscle cells; from tissue; host or cells: rat heart, soluble fraction, Q Sepharose
T1 sequence (Q01062 1-928): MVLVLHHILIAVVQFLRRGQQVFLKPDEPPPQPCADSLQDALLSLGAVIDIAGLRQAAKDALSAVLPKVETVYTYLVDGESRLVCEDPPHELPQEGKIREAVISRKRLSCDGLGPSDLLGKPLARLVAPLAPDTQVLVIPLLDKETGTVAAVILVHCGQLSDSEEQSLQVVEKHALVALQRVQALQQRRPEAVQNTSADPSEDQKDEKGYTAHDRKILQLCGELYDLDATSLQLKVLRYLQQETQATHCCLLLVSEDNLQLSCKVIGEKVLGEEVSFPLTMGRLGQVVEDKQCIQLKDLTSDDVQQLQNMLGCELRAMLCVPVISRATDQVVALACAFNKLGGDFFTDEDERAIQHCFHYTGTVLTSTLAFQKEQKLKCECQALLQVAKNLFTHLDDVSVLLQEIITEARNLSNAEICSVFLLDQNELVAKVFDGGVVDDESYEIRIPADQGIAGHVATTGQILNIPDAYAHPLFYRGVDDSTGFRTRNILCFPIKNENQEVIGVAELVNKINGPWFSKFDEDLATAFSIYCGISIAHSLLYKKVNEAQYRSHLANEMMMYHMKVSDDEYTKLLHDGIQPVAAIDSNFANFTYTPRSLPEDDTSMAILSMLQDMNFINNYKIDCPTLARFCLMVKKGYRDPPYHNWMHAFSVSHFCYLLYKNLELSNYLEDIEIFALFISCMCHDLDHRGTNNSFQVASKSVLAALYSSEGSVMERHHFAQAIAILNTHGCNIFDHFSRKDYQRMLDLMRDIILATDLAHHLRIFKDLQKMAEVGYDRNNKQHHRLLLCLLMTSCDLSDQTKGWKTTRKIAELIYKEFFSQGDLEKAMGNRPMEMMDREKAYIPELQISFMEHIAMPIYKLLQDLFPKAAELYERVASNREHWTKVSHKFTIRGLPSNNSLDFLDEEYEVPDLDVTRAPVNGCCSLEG
Format: biochemical
Text: (A) In order to evaluate selectivity of the compounds of the present invention for type IV phosphodiesterase, types I, II, III and V phosphodiesterase isozymes were purified in the following manner.
1) Solutions containing various phosphodiesterase (types I, II and III) isozymes were purified from rat heart muscle cells in the following manner. Under ether anesthesia, Wistar rat was subjected to thoracotomy to excise the heart. After removing blood by perfusion with physiological saline supplemented with heparin (1 unit/ml), the heart was finely chopped with scissors. This was suspended in buffer A (20 mM Bis-Tris, 5 mM dithioerythritol, 2 mM EGTA and 50 mM sodium acetate, pH 6.5) containing a protease inhibitor (50 μM phenyl-methyl-sulfonyl-fluoride, 5 μM pepstatin A, 40 μM leupeptin, 20 μM aprotinin or 2 mM benzamidine) and then the cells were disrupted using polytron and sonicator and subjected to ultracentrifugation (4° C., 100,000×g, 60 minutes) to give a soluble fraction.
2) Solutions containing various phosphodiesterase isozymes were obtained from the thus obtained soluble fraction in the following manner. The thus, obtained soluble fraction was applied to a column of 1.6×10.0 cm packed with Q Sepharose which had been equilibrated with buffer A. Next, said column was washed with 300 ml of buffer A to remove non-absorbed protein. Phosphodiesterase was eluted with 200 ml of buffer A having 0.05 to 1.25M linear gradient of sodium acetate to collect about 40 fractions each containing 5.0 ml eluate. Each fraction was checked for cAMP- and cGMP-metabolizing phosphodiesterase activities. Of these fractions, a fraction having only cAMP-metabolizing activity and showing disappearance of the metabolizing activity by 0.1 μM cilostamide (a type III phosphodiesterase selective inhibitor) was used as the type III phosphodiesterase. […] These fractions were separately collected to be used as phosphodiesterase (types I, II and III) stock solutions for the examination of selectivity. p1 3) A solution containing type V phosphodiesterase was prepared from peripheral blood of a healthy person in the following manner. A 200 ml portion of physiological saline supplemented with dextran (3%) was added to 500 ml of heparinized peripheral blood and incubated at 37° C. for 40 minutes to effect precipitation of erythrocytes. The supernatant fluid after precipitation of erythrocytes was recovered and centrifuged once, and the resulting precipitate was suspended in buffer B (140 mM NaCl, 5 mM KCl, 5 mm glucose and 10 mM HEPES, pH 7.4), overlaid on a solution for density gradient centrifugation use (Ficoll solution) and then centrifuged at room temperature for 40 minutes at 450×g, thereby separating monocyte fraction and granulocyte fraction. The granulocyte fraction was washed once with buffer C (140 mM NaCl, 5 mM KCl, 1 mM CaCl2, 1 mM MgCl2, 5 mM glucose and 10 mM HEPES, pH 7.4) and suspended in buffer D (20 mM Bis-Tris, 5 mM dithioerythritol, 2 mM EGTA and 50 mM sodium acetate, pH 6.5) containing a protease inhibitor (40 μM leupeptin, 5 μM pepstatin A, 20 μM aprotinin, 50 μM phenyl-methyl-sulfonyl-fluoride or 2 mM benzamidine) and then the cells were disrupted using polytron and sonicator and subjected to ultracentrifugation (4° C., 100,000×g, 60 minutes) to give a soluble fraction.
(B) Inhibitory activities were measured using the thus obtained stock solutions of various phosphodiesterase isozymes.
1) A predetermined amount of each compound to be tested was subjected to 10 minutes of reaction at 30° C. in a reaction mixture containing 40 mM Tris-HCl (pH 8.0), 5 mM MgCl2, 4 mM 2-mercaptoethanol, 10 μM rolipram (a type IV phosphodiesterase selective inhibitor), 1 μM cAMP, 10 nM ^3 H-cAMP (in the case of type V phosphodiesterase, 1 μM cAMP and 10 nM ^3 H-cAMP are replaced by 1 μM cGMP and 100 nM ^3 H-cGMP) and each of the isozyme stock solutions. […]

Structure (SMILES) | pIC50
CCc1cc(C)c2c(-c3cccc(Cl)c3)cc(=O)n(C)c2n1 [Example 27, 4-(3-Chlorophenyl)-7-ethyl-1,5-dimethyl-1,8-naphthyridin-2(1H)-one] | 4.59
CCc1cc(C)c2c(-c3ccccc3)cc(=O)n(CC)c2n1 [Example 40, 1,7-Diethyl-5-methyl-4-phenyl-1,8-naphthyridin-2(1H)-one] | 4.69
Cc1cc(C)c2c(-c3cccc(Cl)c3)cc(=O)n(C)c2n1 [Example 24, 4-(3-chlorophenyl)-1,5,7-trimethyl-1,8-naphthyridin-2(1H)-one] | 4.29
CCc1cc(C)c2c(-c3cccc(Br)c3)cc(=O)n(CC)c2n1 [Example 31, 4-(3-bromophenyl)-1,7-diethyl-5-methyl-1,8-naphthyridin-2(1H)-one] | < 4.52
CCn1c(=O)cc(-c2cccc(Cl)c2)c2c(C)cc(C)nc21 [Example 29, 4-(3-Chlorophenyl)-1-ethyl-5,7-dimethyl-1,8-naphthyridin-2(1H)-one] | 4.81
CCn1c(=O)cc(-c2ccccc2)c2c(C)cc(C)nc21 [Example 38, 1-Ethyl-5,7-dimethyl-4-phenyl-1,8-naphthyridin-2(1H)-one] | 4.58
CCCn1c(=O)cc(-c2cccc(Br)c2)c2c(C)cc(CC)nc21 [Example 33, 4-(3-Bromophenyl)-7-ethyl-5-methyl-1-propyl-1,8-naphthyridin-2(1H)-one] | 4.45
CCc1cc(C)c2c(C3CCCCC3)cc(=O)n(CC)c2n1 [Example 49, 4-cyclohexyl-1,7-diethyl-5-methyl-1,8-naphthyridin-2(1H)-one] | 4.64
CCc1cc(C)c2c(-c3cccc(Cl)c3)cc(=S)n(C)c2n1 [Example 43, 4-(3-chlorophenyl)-7-ethyl-1,5-dimethyl-1,8-naphthyridine-2(1H)-thione] | < 4.52
CCn1c(=O)cc(C2CCCCC2)c2cccnc21 [Example 46, 4-cyclohexyl-1-ethyl-1,8-naphthyridin-2(1H)-one 0.45 hydrochloride 0.25 hydrate] | < 4.52
CCn1c(=O)cc(-c2cccc(Cl)c2)c2cccnc21 [Example 15, 4-(3-Chlorophenyl)-1-ethyl-1,8-naphthyridin-2(1H)-one] | 4.68
CCn1c(=O)cc(-c2cccc(Br)c2)c2c(C)cc(C)nc21 [Example 30, 4-(3-Bromophenyl)-1-ethyl-5,7-dimethyl-1,8-naphthyridin-2(1H)-one] | 4.98
CCc1cc(C)c2c(-c3cccc(Cl)c3)cc(=O)n(C3CC3)c2n1 [Example 35, 4-(3-Chlorophenyl)-1-cyclopropyl-7-ethyl-5-methyl-1,8-naphthyridin-2(1H)-on] | 4.65
CCc1cc(C)c2c(-c3ccccc3)cc(=O)n(C)c2n1 [Example 26, 7-Ethyl-1,5-dimethyl-4-phenyl-1,8-naphthyridin-2(1H)-one] | 4.52
